From PMC9500498 (Circulation research, 2021)
Peptide text beside a SMILES is read from it.

Key:
CaMKIIδ-T287D [1] = molecular target: T1, CaMKIIδ-T287D (Homo sapiens, UniProt Q13557, T287D); conditions: compared with AKAP18δ-N (55–98), Suppl. Fig. 2j–k
CaM [2] = molecular target: T2, CaM (Homo sapiens, UniProt P0DP23); assay: CaM-agarose precipitation in the presence of Ca2+, immunoblot; type: binding; conditions: Suppl. Fig. 4b–c
CaM [3] = molecular target: T2, CaM; assay: SPR of immobilized biotin-ahx-AKAP18δ; type: binding
CaMKIIδ-T287D [4] = molecular target: T1, CaMKIIδ-T287D; assay: In vitro CaMKII kinase assay; type: biochemical; conditions: 32P incorporation into syntide; compared among AKAP18δ-N sequences
Ca^2+/CaM = assay: ELISA-based binding of biotinylated peptide to CaM-coated wells; conditions: biotinylated peptide vs scrambled control, n=6
CaMKIIδ-T287D [5] = molecular target: T1, CaMKIIδ-T287D; assay: CaMKIIδ-T287D-catalyzed phosphorylation of biotin-ahx-PLN; type: biochemical; conditions: biotin-ahx-PLN (1–30) as substrate, vs scrambled control peptide, n=7
CaMKIIδ = assay: Overlay of 20-mer overlapping CaMKIIδ peptide arrays with biotinylated peptide; type: binding; conditions: 20-mer overlapping CaMKIIδ peptides on membranes
pThr17-PLN = type: cell-based; conditions: neonatal rat cardiomyocytes; Suppl. Fig. 6a–b
CaMKIIδ-T287A [6] = assay: Immunoprecipitation of CaM with CaMKIIδ-T287A; type: binding; conditions: immunoprecipitation in the presence of CaM, n=15
CaMKIIδ-T287A [7] = assay: CaMKIIδ-catalyzed phosphorylation of Thr17-PLN at 0.5 μM Ca2+, immunoblot; type: biochemical; conditions: 0.5 μM free Ca2+
CaMKIIδ-T287A [8] = assay: In vitro CaMKII kinase assay; type: biochemical; conditions: CaM omitted; 32P incorporation into syntide, n=6

T1 sequence (Q13557 whole entry T287D): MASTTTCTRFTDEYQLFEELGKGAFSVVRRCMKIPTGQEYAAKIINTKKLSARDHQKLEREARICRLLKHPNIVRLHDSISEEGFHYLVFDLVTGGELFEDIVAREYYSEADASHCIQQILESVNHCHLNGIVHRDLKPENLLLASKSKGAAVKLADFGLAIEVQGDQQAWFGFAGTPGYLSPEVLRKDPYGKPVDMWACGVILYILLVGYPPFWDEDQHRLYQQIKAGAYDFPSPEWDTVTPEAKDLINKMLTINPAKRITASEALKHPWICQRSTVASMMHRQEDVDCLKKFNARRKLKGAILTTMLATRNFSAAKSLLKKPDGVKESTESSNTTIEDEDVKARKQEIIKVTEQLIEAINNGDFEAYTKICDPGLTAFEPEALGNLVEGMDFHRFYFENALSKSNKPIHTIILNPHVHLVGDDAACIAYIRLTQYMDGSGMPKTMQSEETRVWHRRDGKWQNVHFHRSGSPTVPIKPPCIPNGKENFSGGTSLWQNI

**Q.** `CC[C@H](C)[C@H](NC(=O)[C@@H]1CCCN1C(=O)[C@@H](NC(=O)[C@H](CO)NC(=O)[C@H](CC(C)C)NC(=O)[C@H](Cc1ccccc1)NC(=O)[C@H](Cc1ccc(O)cc1)NC(=O)[C@H](CC(N)=O)NC(=O)[C@@H]1CCCN1C(=O)[C@H](CCC(N)=O)NC(=O)[C@H](Cc1ccc(O)cc1)NC(=O)[C@H](CC(=O)O)NC(=O)[C@H](CCCCN)NC(=O)[C@H](CCCCN)NC(=O)[C@H](C)NC(=O)[C@H](CCCCN)NC(=O)[C@H](CCCCN)NC(=O)[C@H](CCCNC(=N)N)NC(=O)[C@H](CCCCN)NC(=O)[C@@H](N)CCCCN)[C@@H](C)CC)C(=O)O` [AKAP18δ-N (79–98)] (H-KKRKKAKKDYQPNYFLSIPI-OH; N-terminus and C-terminus assumed) was tested. Which “SPR binding to CaMKIIδ-T287D (in words)” value (CaMKIIδ-T287D [1]) did it give?
**A.** bound strongly

**Q.** And the “precipitation with CaM-agarose” value (CaM [2])?
**A.** precipitated with CaM-agarose

**Q.** What about the kon (CaM [3]; read-out: association rate constant (ka)) of the same compound?
**A.** 130 M⁻¹ s⁻¹

**Q.** And the koff (CaM [3]; read-out: dissociation rate constant (kd))?
**A.** 0.00053 s⁻¹

**Q.** What about the “effect on CaMKIIδ-T287D activity (in words)” value (CaMKIIδ-T287D [4]) of the same compound?
**A.** inhibitory

**Q.** And the “CaM binding, ELISA-based assay” value (Ca^2+/CaM)?
**A.** confirmed

**Q.** Which “CaMKIIδ-T287D-catalyzed phosphorylation of Thr17 in PLN” value (CaMKIIδ-T287D [5]) does the source give for `CC[C@H](C)[C@H](NC(=O)[C@@H]1CCCN1C(=O)[C@@H](NC(=O)[C@H](CO)NC(=O)[C@H](CC(C)C)NC(=O)[C@H](Cc1ccccc1)NC(=O)[C@H](Cc1ccc(O)cc1)NC(=O)[C@H](CC(N)=O)NC(=O)[C@@H]1CCCN1C(=O)[C@H](CCC(N)=O)NC(=O)[C@H](Cc1ccc(O)cc1)NC(=O)[C@H](CC(=O)O)NC(=O)[C@H](CCCCN)NC(=O)[C@H](CCCCN)NC(=O)[C@H](C)NC(=O)[C@H](CCCCN)NC(=O)[C@H](CCCCN)NC(=O)[C@H](CCCNC(=N)N)NC(=O)[C@H](CCCCN)NC(=O)[C@H](CCCCN)NC(=O)[C@@H](NC(=O)[C@H](Cc1c[nH]cn1)NC(=O)[C@H](CC(=O)O)NC(=O)[C@H](CC(N)=O)NC(=O)[C@H](CCCNC(=N)N)NC(=O)[C@H](CC(=O)O)NC(=O)CNC(=O)[C@H](CCCNC(=N)N)NC(=O)[C@H](CC(N)=O)NC(=O)[C@H](CCC(=O)O)NC(=O)[C@H](CCCCN)NC(=O)[C@H](CO)NC(=O)[C@H](CCCNC(=N)N)NC(=O)[C@H](CCCCN)NC(=O)[C@@H]1CCCN1C(=O)[C@H](CC(N)=O)NC(=O)CNC(=O)[C@H](CCC(N)=O)NC(=O)[C@@H]1CCCN1C(=O)[C@@H](NC(=O)[C@H](CC(N)=O)NC(=O)CNC(=O)[C@H](CCC(N)=O)NC(=O)[C@@H]1CCCN1)C(C)C)C(C)C)[C@@H](C)CC)C(=O)O` [AKAP18δ-N (55–98)] here?
**A.** reduced

**Q.** What does the source list for `CC[C@H](C)[C@H](NC(=O)[C@H](CCC(N)=O)NC(=O)[C@H](Cc1ccc(O)cc1)NC(=O)[C@H](CC(C)C)NC(=O)[C@@H](NC(=O)[C@H](CCC(=O)O)NC(=O)[C@H](CCC(=O)O)NC(=O)CNC(=O)[C@H](Cc1ccccc1)NC(=O)[C@H](CCCNC(=N)N)NC(=O)[C@H](Cc1c[nH]cn1)NC(=O)[C@H](CC(=O)O)NC(=O)[C@@H](NC(=O)[C@H](Cc1ccccc1)NC(=O)[C@H](CCC(N)=O)NC(=O)[C@H](CCC(=O)O)NC(=O)[C@H](Cc1ccc(O)cc1)NC(=O)[C@H](CC(C)C)NC(=O)CNC(=O)[C@@H]1CCCN1C(=O)[C@H](CCC(=O)O)NC(=O)[C@@H](NC(=O)[C@H](CCCCN)NC(=O)[C@H](CCCNC(=N)N)NC(=O)[C@@H](NC(=O)CNC(=O)[C@H](CCCCN)NC(=O)[C@@H](N)CCCCN)C(C)C)[C@@H](C)CC)[C@@H](C)CC)[C@@H](C)CC)C(=O)N[C@@H](CC(=O)O)C(=O)O` [AKAP18δ-C]?
**A.** CaMKIIδ binding on peptide arrays (CaMKIIδ): too weak or dynamic to be detected; pThr17-PLN level (pThr17-PLN): augmented; trapping of CaM to CaMKIIδ-T287A (CaMKIIδ-T287A [6]): induced trapping of CaM; cytotoxicity (and changes at basal level) (cardiomyocytes): No cytotoxicity; Thr17-PLN phosphorylation by CaMKIIδ-T287A (CaMKIIδ-T287A [7]): further increased Thr17-PLN phosphorylation in the presence of either AKAP18δ-C (tendency); substrate phosphorylation by CaMKIIδ-T287A (CaMKIIδ-T287A [8]): increased substrate phosphorylation
